Assay results from patent publication US6043357A, “HIV protease inhibitors” (The University of Queensland, priority 1994, dated 2000).
Where two headings read alike, the source gives them in different places. Blank lines part the entries; values can stand above or below the compound they belong to.

Biological target: HIV-1 protease (Human immunodeficiency virus type 1 group M subtype B, UniProt P03369)
Assay: biochemical
Method: HIV-1 protease activity was measured at 37° C. using a continuous fluorimetric assay based on the method of Toth et al., (Toth et al., 1990, Int. J. Pept. Res. 36 544-550). The substrate, 2-aminobenzoyl-threonine-isoleucine-norleucine-(p-nitro)-phenylalanine-glutamine-arginine-NH2 (Abz-NF^* -6), was synthesised by solid phase peptide synthesis (Kent et al., 1991, In: Peptides 1990: Proceedings of the Twenty-First European Peptide Symposium (Girault, E. and Andrew, D. eds.) pp 172-173, ESCOM, Leiden). Enzyme activity was measured as the increase in fluorescence intensity upon substrate hydrolysis. The change in fluorescence intensity was monitored with a Perkin Elmer LS50B luminescence spectrometer fitted with a thermostatted micro cuvette holder. Measurements were carried out using an excitation wavelength of 320 nm (bandwith 5 nm) and an emission wavelength of […] (bandwith 5 nm).
Inhibition assays were routinely carried out at pH 6.5 and μ=0.1 M using a single substrate concentration. The assay mixtures contained 50 μM Abz-NF^* -6 in 100 mM 2-(N-morpholino)ethanesulphonate buffer, containing 10% (v/v) glycerol and 50 μg/ml bovine serum albumin, in a total final volume of 400 μl. Where inhibitors had to be dissolved in dimethyl sulphoxide or other organic solvents, the final concentration of solvent in the control and inhibition assays were kept absolutely constant because of the severe inhibitory effect of some solvents on the enzyme activity (Bergman et al., 1992, 17th Ann. Lorne Conf. on Protein Struct. and Funct. Abstr.). In all assays, the reaction was initiated by the addition of 10 μl of enzyme solution.

[1] = Table 9, R isomer, read-out: IC50
[2] = Table 10, pH 6.5, 37° C., read-out: IC50
[3] = Table 1, pH 6.5, 37° C., read-out: IC50
[4] = Table 2, pH 6.5, 37° C., read-out: IC50
[5] = Table 4, rac (R and S isomer together), read-out: IC50

protease inhibition, stated in words: only μM instead of nM
IC50 (read-out: IC50): 1900 nM
Compound: CC(C)CN(CC(=O)NC(C)(C)C)C[C@H](O)[C@@H]1Cc2ccc(cc2)OCCCC(=O)N[C@@H](CC(N)=O)C(=O)N1 [Compound 27]

IC50 [1]: 15 nM
Compound: CC[C@H](C)[C@@H]1NC(=O)[C@@H](NC[C@@H](O)[C@H](Cc2ccccc2)NC(=O)O[C@H]2CCOC2)Cc2ccc(cc2)OCCCNC1=O [Compound 91, [2R, 3S, 11'S, 8'S]-3-[3S-tetrahydrofuranyloxy]amino-4-phenyl-1-[11'-[7',10'-dioxo-8'-(1-methylpropyl)-2'-oxa-6',9'-diazabicyclo[11.2.2]heptadeca-13',15',16'-triene]amino]butan-2-ol]
protease inhibition, stated in words: not better as a P2 filler over the t-butyl group in 89

IC50 [2]: 2 nM
Compound: CC[C@H](C)[C@@H]1NC(=O)[C@@H](NC[C@@H](O)[C@H](Cc2ccc(OCC(=O)OC)cc2)NC(=O)OC(C)(C)C)Cc2ccc(cc2)OCCCNC1=O [Compound 101]

protease inhibition, stated in words: quite active
Compound: CC(C)C1NC(=O)CCCOc2ccc(cc2)CC(C(O)CNC2Cc3ccc(cc3)OCCCNC(=O)C(CCC(N)=O)NC2=O)NC1=O (centres unmarked) [Compound 131]

protease inhibition, stated in words: increased potency
Compound: CC(C)[C@@H]1NC(=O)CCCOc2ccc(cc2)C[C@@H]([C@@H](O)CN2CCN(Cc3ccccc3)CC2C(=O)NC(C)(C)C)NC1=O (some centres unmarked) [Compound 83]

protease inhibition, stated in words: increased potency
Compound: CC(C)[C@@H]1NC(=O)CCCOc2ccc(cc2)C[C@@H]([C@H](O)CN2CCN(Cc3ccccc3)CC2C(=O)NC(C)(C)C)NC1=O (some centres unmarked) [Compound 82]

protease inhibition, stated in words: no dramatic increase in potency
IC50 [4]: 26 nM
Compound: CC[C@H](C)[C@H](NC(=O)[C@@H]1CCCN1C[C@H](O)[C@@H]1Cc2ccc(cc2)OCCCCC(=O)N[C@@H](CC(N)=O)C(=O)N1)C(=O)N[C@H](C(N)=O)C(C)C [Compound 13]

IC50 [2]: 5 nM
Compound: CC[C@H](C)[C@@H]1NC(=O)[C@@H](NC[C@@H](O)[C@H](Cc2ccc(OCC(=O)O)cc2)NC(=O)OC(C)(C)C)Cc2ccc(cc2)OCCCNC1=O [Compound 99]

IC50 (read-out: IC50): 50 nM
Compound: CC[C@H](C)[C@@H]1NC(=O)[C@@H](NCC(O)[C@H](Cc2ccccc2)NC(=O)c2cccc(C)c2)Cc2ccc(cc2)OCCCNC1=O (some centres unmarked) [Compound 92]

protease inhibition, stated in words: activity was instead reduced
IC50 [4]: 122000 nM
Compound: CC[C@H](C)[C@H](NC(=O)[C@@H]1CCCN1C[C@@H](O)[C@@H]1CSSCC(NC(C)=O)C(=O)NCC(=O)N[C@@H](CC(N)=O)C(=O)N1)C(=O)N[C@H](C(N)=O)C(C)C (some centres unmarked) [Compound 16]

IC50 (read-out: IC50): 490 nM
Compound: CC(C)(C)NC(=O)[C@@H]1CCCN1C[C@H](O)[C@@H]1Cc2ccc(cc2)OCCCC(=O)N[C@@H](CC(N)=O)C(=O)N1 [Compound 39]

protease inhibition, stated in words: slightly enhanced activity
Compound: CC(C)(C)OC(=O)N[C@@H](Cc1ccccc1)[C@@H](O)CN[C@H]1Cc2ccc(cc2)OCCCNC(=O)[C@@H](CCC(N)=O)NC1=O [Compound 108]

IC50 [5]: 42000 nM
Compound: CC(C)NC(=O)C(Cc1ccccc1)NC[C@H](O)[C@@H]1Cc2ccc(cc2)OCCCC(=O)N[C@@H](CC(N)=O)C(=O)N1 (some centres unmarked) [Compound 33]

protease inhibition, stated in words: much less active than 38 & 39
IC50 (Table 5, pH 6.5, 37° C., read-out: IC50): 7050 nM
Compound: CCOC(=O)CCCOc1ccc(C[C@H](NC(=O)[C@H](CC(N)=O)NC(=O)OC(C)(C)C)[C@H](O)CN2CCC[C@H]2C(=O)NC(C)(C)C)cc1 [Compound 36]

IC50 (Table 11, pH 6.5, 37° C., read-out: IC50): 8 nM
IC50 (read-out: IC50): 1 nM
Compound: CC[C@H](C)[C@@H]1NC(=O)[C@@H](NC[C@@H](O)[C@@H]2Cc3ccc(cc3)OCCCC(=O)N[C@@H](C(C)C)C(=O)N2)Cc2ccc(cc2)OCCCNC1=O [Compound 111]

protease inhibition, stated in words: slightly reduced potency
IC50 [4]: 350 nM
Compound: CCOC(=O)CCCOc1ccc(C[C@H](NC(=O)[C@H](CC(N)=O)NC(C)=O)[C@H](O)CN2CCC[C@H]2C(=O)N[C@H](C(=O)N[C@H](C(N)=O)C(C)C)[C@@H](C)CC)cc1 [Compound 14]

IC50 [5]: 42000 nM
Compound: CC(C)NC(=O)C(Cc1ccccc1)NC[C@@H](O)[C@@H]1Cc2ccc(cc2)OCCCC(=O)N[C@@H](CC(N)=O)C(=O)N1 (some centres unmarked) [Compound 32]

IC50 [2]: 2 nM
Compound: CCCCCCOC(=O)COc1ccc(C[C@H](NC(=O)OC(C)(C)C)[C@H](O)CN[C@H]2Cc3ccc(cc3)OCCCNC(=O)[C@H]([C@@H](C)CC)NC2=O)cc1 [Compound 105]

The remaining lines, values behind:

Compound: CC[C@H](C)[C@H](NC(=O)[C@@H]1CCCN1C[C@@H](O)[C@@H]1Cc2ccc(cc2)OCC(O)C(O)C(=O)N[C@@H](CC(N)=O)C(=O)N1)C(=O)N[C@H](C(N)=O)C(C)C (some centres unmarked) [Compound 10]
protease inhibition, stated in words: no improvement was observed in potency compared to 3 or 9
IC50 [3]: 600 nM

Compound: CC[C@H](C)[C@H](NC(=O)[C@@H]1CCCN1C[C@@H](O)[C@@H]1Cc2ccc(cc2)OCCCCC(=O)N[C@@H](CC(N)=O)C(=O)N1)C(=O)N[C@H](C(N)=O)C(C)C [Compound 12]
IC50 [4]: 165 nM

Compound: CC[C@H](C)[C@H](NC(=O)[C@@H]1CCCN1C[C@@H](O)[C@@H]1Cc2ccc(cc2)OCC(=O)N[C@@H](Cc2cnc[nH]2)C(=O)N[C@@H](CC(N)=O)C(=O)N1)C(=O)N[C@H](C(N)=O)C(C)C [Compound 21]
IC50 (pH 6.5): 339 nM

Compound: CC[C@H](C)[C@@H]1NC(=O)[C@@H](NC[C@@H](O)[C@H](Cc2ccccc2)NC(=O)OC(C)(C)C)Cc2ccc(cc2)OCCCNC1=O [Compound 89, [2R, 3S, 11'S, 8'S]-3-[t-butoxycarbonyl]amino-4-phenyl-1-[11'-[7', 10'-dioxo-8'-(1-methylpropyl)-2'-oxa-6',9'-diazabicyclo[11.2.2]heptadeca-13',15',16'-triene]amino]butan-2-ol]
IC50 [1]: 15 nM

Compound: CC[C@H](C)[C@H](NC(=O)[C@@H]1CCCN1C[C@H](O)[C@@H]1Cc2ccc(cc2)OCC(=O)N[C@@H](CCCNC(=N)N)C(=O)N[C@@H](CC(N)=O)C(=O)N1)C(=O)N[C@H](C(N)=O)C(C)C [Compound 22]
IC50 (pH 6.5): 42 nM

Compound: Ac-LNFPIV-NH2 [Compound 85, reference compound]
IC50 [1]: 60 nM
IC50 (Table 9, S isomer, read-out: IC50): 9 nM

Compound: CC[C@H](C)[C@H](NC(=O)[C@@H]1CCCN1C[C@H](O)[C@@H]1Cc2ccc(cc2)OCC(O)C(O)C(=O)N[C@@H](CC(N)=O)C(=O)N1)C(=O)N[C@H](C(N)=O)C(C)C (some centres unmarked) [Compound 11]
protease inhibition, stated in words: no improvement was observed in potency compared to 3 or 9
IC50 [3]: 49 nM

Compound: Ac-LVFFIV-NH2 [Compound 86, reference compound]
IC50 [1]: 5 nM

Compound: CC[C@H](C)[C@@H]1NC(=O)[C@@H](NC[C@H](Cc2ccccc2)NC(=O)OC(C)(C)C)Cc2ccc(cc2)OCCCNC1=O [Compound 90, [2S, 11'S, 8'S]-2-[t-butoxycarbonyl]amino-3-phenyl-1-[11'-[7',10'-dioxo-8'-(-1-methylpropyl)-2'-oxa-6',9'-diazabicyclo[11.2.2]heptadeca-13',15',16'-triene]amino]propane]
IC50 [1]: 150 nM

Compound: CC(C)(C)NC(=O)CN(Cc1ccccc1)C[C@@H](O)[C@@H]1Cc2ccc(cc2)OCCCC(=O)N[C@@H](CC(N)=O)C(=O)N1 [Compound 28]
IC50: 1500 nM

Compound: CC(C)C[C@@H]1NC(=O)CCCOc2ccc(cc2)C[C@@H]([C@H](O)CN2CCCC[C@H]2C(=O)NC(C)(C)C)NC1=O [Compound 54]
protease inhibition, stated in words: slightly better than the isopropyl of 48/49

Compound: CC[C@H](C)[C@H](NC(=O)[C@@H]1CCCN1C[C@H](O)[C@@H]1Cc2ccc(cc2)OCC(=O)N[C@H](CCC(N)=O)C(=O)N[C@@H](CC(N)=O)C(=O)N1)C(=O)N[C@H](C(N)=O)C(C)C [Compound 25]
IC50: 40 nM

Compound: CC[C@H](C)[C@H](NC(=O)[C@@H]1CCCN1C[C@H](O)[C@@H]1Cc2ccc(cc2)OCCNCC(=O)N[C@@H](CC(N)=O)C(=O)N1)C(=O)N[C@H](C(N)=O)C(C)C [Compound 9]
IC50 [3]: 37 nM

Compound: CC[C@H](C)[C@H](NC(=O)[C@@H]1CCCN1C[C@@H](O)[C@@H]1Cc2ccc(cc2)OCCCC(=O)N[C@@H](CC(N)=O)C(=O)N1)C(=O)N[C@H](C(N)=O)C(C)C [Compound 2]
IC50: 1580 nM

Compound: CC(C)N(C(=O)[C@@H]1CCCN1C[C@H](O)[C@@H]1Cc2ccc(cc2)OCCCC(=O)N[C@@H](CC(N)=O)C(=O)N1)C(C)C [Compound 41]
IC50: 290000 nM
protease inhibition, stated in words: much less active

Compound: CC(C)CNC(=O)C(Cc1ccccc1)NC[C@@H](O)[C@@H]1Cc2ccc(cc2)OCCCC(=O)N[C@@H](CC(N)=O)C(=O)N1 (some centres unmarked) [Compound 34]
IC50: 5200 nM

Compound: CC[C@H](C)[C@H](NC(=O)[C@H](Cc1ccccc1)NC[C@H](O)[C@@H]1Cc2ccc(cc2)OCCCC(=O)N[C@@H](C(C)C)C(=O)N1)C(=O)N[C@H](C(N)=O)C(C)C [Compound 47]
protease inhibition, stated in words: there was not a great deal of difference

Compound: CC[C@H](C)[C@H](NC(=O)[C@H](Cc1ccccc1)NC[C@@H](O)[C@@H]1Cc2ccc(cc2)OCCCC(=O)N[C@@H](C(C)C)C(=O)N1)C(=O)N[C@H](C(N)=O)C(C)C [Compound 46]
protease inhibition, stated in words: there was not a great deal of difference
